Values of other authors in US7442709B2, “N3-substituted imidazopyridine c-Kit inhibitors” (OSI Pharmaceuticals, Inc., priority 2003, dated 2008).
Where a name gives a salt, the structure may show the parent alone.

How the values were obtained:
[1] = tested on: MO7e human leukemia cells; details: GM-CSF stimulation
[2] = tested on: MO7e human leukemia cells

Cc1ccc(NC(=O)c2ccc(CN3CCN(C)CC3)cc2)cc1Nc1nccc(-c2cccnc2)n1 [Gleevec, imatinib mesylate]
GM-CSF stimulated growth of MO7e human leukemia cells [1]: not affected | Kit ligand-stimulated growth of MO7e human leukemia cells ([2]; Kit ligand stimulation): inhibited | Apoptosis in MO7e human leukemia cells ([2]; under Kit ligand-stimulated growth conditions): induces apoptosis
